Patent publication US20080280835A1, “Novel Use of Peptide Compounds For Treating Muscle Pain” (priority 2005, published 2008)

What was measured:
[1] = test system: Wistar rats; assay: Mechanical hyperalgesia (Randall-Selitto paw pressure) in iodoacetate rat model of osteoarthritic pain; format: in vivo; conditions: for paw pressure withdrawal threshold compared to iodoacetate/vehicle treated animals: day 3 after iodoacetate
[2] = test system: Sprague Dawley rats; assay: TNF-induced muscle pressure hyperalgesia, gastrocnemius muscle (Randall-Selitto analgesimeter); format: in vivo, rat; conditions: for reversal of muscular mechanical hyperalgesia (withdrawal thresholds to pressure): 18 hours after TNF 1 μg into gastrocnemius, 30 to 60 minutes after drug; for Maximal Possible Effect (MPE) versus vehicle, muscle pressure: FIG. 2; for full reversal of the muscle hyperalgesia: doses tested i.p.: pregabalin 30 and 100 mg/kg, gabapentin 100 mg/kg
Experimental: (§1) Intramuscular injection of tumor necrosis factor-alpha (TNF) was used as a model of muscular mechanical hyperalgesia, which occurs in the human fibromyalgia, myofascial pain syndrome, back pain or osteoarthritis.
(§2) Mechanical withdrawal thresholds to muscle pressure were measured with an analgesimeter exerting pressure on the gastrocnemius muscle previously injected with TNF. Forelimb grip strength was measured with a digital grip force meter after TNF injection into the biceps brachii muscles.
(§3) Adult male Sprague Dawley rats with a body weight of 250 g to 300 g were used (supplier: Charles River Sulzfeld Germany). Animals were group-housed (3 animals per cage) and maintained in a room with controlled temperature (21-22° C.) and a reversed light-dark cycle (12 h/12 h) with food and water available ad libitum. All experiments were approved by the Bavarian State animal experimentation committee and carried out in accordance with its regulations.
(§4) Recombinant rat tumor necrosis factor alpha (herein referred to as TNF) was obtained from R&D Systems, Minneapolis, Minn., USA. TNF was diluted in 0.9% NaCl and used in a concentration of 1 μg in 50 μl. Injections were performed in short halothane narcosis with a 30 g needle bilaterally into the gastrocnemius or into the biceps brachii muscle. All rats were used to the behavioral tests before injections and baseline values were recorded over three test days.
Mechanical withdrawal thresholds to muscle pressure were measured with an analgesimeter (Ugo Basile, Comerio, Italy). The rat is allowed to crawl into a sock which helps the rat to relax. The hind limbs were positioned such that an increasing pressure could be applied onto the gastrocnemius muscle (maximum 250 g). The pressure needed to elicit withdrawal was recorded. Means of 3 trials for each hind limb were calculated (interstimulus interval of >30 sec). Only animals with a significant TNF effect were included for further analysis.
Rats were injected with TNF into the M. gastrocnemius at […]. 18 hours later, rats were tested for pressure hyperalgesia pre- and post-application of the drugs. Rats were tested for pressure hyperalgesia 30 to 60 minutes after drug administration.
(§5) […] Injection volume of i.p. injections was 0.5 ml.
(§6) Data are shown in graphs displaying means and SEMs. Pre- and post-treatment data were compared using ANOVA (Analysis Of Variance) and a Tukey post hoc test. Means of treatment groups were compared using a one-way ANOVA and Dunnett's post hoc Test. Maximal possible effects (MPE) were calculated for all types of treatment.

[3] = test system: Sprague Dawley rats; assay: TNF-induced reduction of forelimb grip strength, biceps brachii muscle; format: in vivo, rat; conditions: for reversal of the TNF induced reduction of grip strength: 6 hours after TNF 1 μg into biceps brachii, 30 to 60 minutes after drug; for MPE versus vehicle, grip strength: FIG. 4; for dose at which the effect of TNF on grip strength is reversed / grip strength improved: i.p., grip strength test
Experimental: as §1, §2, §3, §4
Grip strength of the forelimbs was tested with a digital grip force meter (DFIS series, Chatillon, Greensboro, N.C., USA). The rat was positioned to grab the grid with the forelimbs and was gently pulled so that the grip strength could be recorded. Means of three trials were calculated. The effect of the TNF treatment was calculated for each animal separately and only animals with a significant TNF effect were included for further analysis.
Rats were injected with TNF into the M. biceps brachii at 8 am. 6 hours later, grip strength of the forelimbs was tested with a digital grip force meter. Drugs were applied, and grip strength was again tested after 30 to 60 minutes.
as §5, §6

[4] = test system: Wistar rats; assay: Tactile allodynia (von Frey filaments) in iodoacetate rat model of osteoarthritic pain; format: in vivo
[5] = 30 mg/kg p.o., day 7 after iodoacetate
[6] = 3 mg/kg s.c., day 7 after iodoacetate

O=C(O)Cc1ccccc1Nc1c(Cl)cccc1Cl [diclofenac]
paw pressure withdrawal threshold compared to iodoacetate/vehicle treated animals ([1]; 30 mg/kg s.c.): increase in paw pressure withdrawal threshold | mechanical hyperalgesia ([1]; 30 mg/kg s.c., day 7 after iodoacetate): reduced mechanical hyperalgesia

NCC1(CC(=O)O)CCCCC1 [gabapentin]
reversal of muscular mechanical hyperalgesia (withdrawal thresholds to pressure) ([2]; 100 mg/kg i.p.): significant reversal | Maximal Possible Effect (MPE) versus vehicle, muscle pressure ([2]; 100 mg/kg i.p.): significantly different from vehicle | full reversal of the muscle hyperalgesia [2]: Neither pregabalin nor gabapentin lead to a full reversal | reversal of the TNF induced reduction of grip strength ([3]; 100 mg/kg i.p.): significant reversal | MPE versus vehicle, grip strength ([3]; 100 mg/kg i.p.): significantly different from vehicle | dose at which the effect of TNF on grip strength is reversed / grip strength improved [3]: 100 mg/kg

COC[C@@H](NC(C)=O)C(=O)NCc1ccccc1 [lacosamide, (R)-2-acetamido-N-benzyl-3-methoxy-propionamide]
Maximal Possible Effect (MPE) versus vehicle, muscle pressure ([2]; 10 mg/kg i.p.): significantly different from vehicle | reversal of muscular mechanical hyperalgesia (withdrawal thresholds to pressure) ([2]; 30 mg/kg i.p.): complete reversal | Maximal Possible Effect (MPE) versus vehicle, muscle pressure ([2]; 30 mg/kg i.p.): significantly different from vehicle | muscle hyperalgesia induced by TNF injection in the paw pressure test, dose dependence ([2]; 3, 10, 30 mg/kg i.p.): dose dependently improves | paw pressure withdrawal threshold compared to iodoacetate/vehicle treated animals ([1]; 3 mg/kg p.o.): increase in paw pressure withdrawal threshold | mechanical hyperalgesia ([1]; 3 mg/kg p.o., day 7 after iodoacetate): reduced mechanical hyperalgesia | mechanical hyperalgesia ([1]; 10 mg/kg p.o., day 7 after iodoacetate): reduced mechanical hyperalgesia | mechanical hyperalgesia ([1]; 10 mg/kg p.o., day 14 after iodoacetate): did not show a statistically significant effect | mechanical hyperalgesia [1, 5]: reduced mechanical hyperalgesia | reversal of the TNF induced reduction of grip strength ([3]; 10 mg/kg i.p.): significant reversal | MPE versus vehicle, grip strength ([3]; 10 mg/kg i.p.): significantly different from vehicle | reversal of the TNF induced reduction of grip strength ([3]; 30 mg/kg i.p.): significant reversal | MPE versus vehicle, grip strength ([3]; 30 mg/kg i.p.): significantly different from vehicle | dose at which the effect of TNF on grip strength is reversed / grip strength improved [3]: 10 mg/kg | improvement of tactile allodynia ([4]; 30 mg/kg p.o., day 3 after iodoacetate, 60 minutes after drug): improved | improvement of tactile allodynia [4, 5]: improved | improvement of tactile allodynia ([4]; lower doses (3 and 10 mg/kg p.o.)): showed a trend for such improvement

Cc1c(N(C)CS(=O)(=O)O)c(=O)n(-c2ccccc2)n1C [metamizol]
reversal of muscular mechanical hyperalgesia (withdrawal thresholds to pressure) ([2]; 2 mg/kg i.p.): complete reversal | Maximal Possible Effect (MPE) versus vehicle, muscle pressure ([2]; 2 mg/kg i.p.): significantly different from vehicle | reversal of the TNF induced reduction of grip strength ([3]; 2 mg/kg i.p.): significant reversal | MPE versus vehicle, grip strength ([3]; 2 mg/kg i.p.): significantly different from vehicle

CN1CC[C@]23c4c5ccc(O)c4O[C@H]2[C@@H](O)C=C[C@H]3[C@H]1C5 [morphine]
paw pressure withdrawal threshold compared to iodoacetate/vehicle treated animals ([1]; 3 mg/kg s.c.): increase in paw pressure withdrawal threshold | mechanical hyperalgesia [1, 6]: reduced mechanical hyperalgesia | improvement of tactile allodynia ([4]; 3 mg/kg s.c., day 3 after iodoacetate): improved | improvement of tactile allodynia [4, 6]: improved

CC(C)C[C@H](CN)CC(=O)O [pregabalin]
reversal of muscular mechanical hyperalgesia (withdrawal thresholds to pressure) ([2]; 30 mg/kg i.p.): significant reversal | Maximal Possible Effect (MPE) versus vehicle, muscle pressure ([2]; 30 mg/kg i.p.): significantly different from vehicle | reversal of muscular mechanical hyperalgesia (withdrawal thresholds to pressure) ([2]; 100 mg/kg i.p.): significant reversal | Maximal Possible Effect (MPE) versus vehicle, muscle pressure ([2]; 100 mg/kg i.p.): significantly different from vehicle | full reversal of the muscle hyperalgesia [2]: Neither pregabalin nor gabapentin lead to a full reversal | reversal of the TNF induced reduction of grip strength ([3]; 100 mg/kg i.p.): significant reversal | MPE versus vehicle, grip strength ([3]; 100 mg/kg i.p.): significantly different from vehicle | dose at which the effect of TNF on grip strength is reversed / grip strength improved [3]: 100 mg/kg
